Experimental data published in patent EP0619818B1, “IMIDAZOYLALKYL SUBSTITUTED WITH A SIX MEMBERED NITROGEN CONTAINING HETEROCYCLIC RING” (SCHERING CORPORATION, priority 1991, dated 1993).
pKi: −log10 of the molar value.

Biological target: H3 receptors (Cavia porcellus, UniProt Q9JI35)
Test: H3 Receptor Binding Assay
Settings: guinea pig brain membranes; 3 nM [3H]R-α-methylhistamine or [3H]-N-methylhistamine; 30° for 30 min; 50 mM Tris, pH 7.5

Sequence of H3 receptors (Q9JI35 whole entry): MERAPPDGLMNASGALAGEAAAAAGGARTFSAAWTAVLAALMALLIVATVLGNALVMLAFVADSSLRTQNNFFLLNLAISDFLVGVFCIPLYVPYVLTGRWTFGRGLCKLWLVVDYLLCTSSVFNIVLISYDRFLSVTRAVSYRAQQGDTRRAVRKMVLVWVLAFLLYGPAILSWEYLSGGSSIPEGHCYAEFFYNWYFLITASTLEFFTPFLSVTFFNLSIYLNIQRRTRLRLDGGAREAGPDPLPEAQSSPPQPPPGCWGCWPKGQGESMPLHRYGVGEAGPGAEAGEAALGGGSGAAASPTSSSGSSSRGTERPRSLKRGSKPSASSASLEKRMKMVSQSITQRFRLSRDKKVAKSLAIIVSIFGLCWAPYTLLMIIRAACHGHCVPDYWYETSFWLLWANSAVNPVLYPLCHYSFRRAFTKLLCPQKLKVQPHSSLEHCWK

pKi | Structure (SMILES)
6.72 | CN1CCCC(Cc2c[nH]cn2)C1 (centres unmarked) [Compound 6.2]
9.52 | c1nc(CC2CCNCC2)c[nH]1 [Compound 7.3]
